Test results from PubChem BioAssay AID2060342 (Molecular Pharmacology Branch, DTP, NCI, 2025).

Test system: 171881-019-R-J1-PDC multicell spheroid viability
Experiment: Anticancer human tumor 171881-019-R-J1-PDC patient-derived invasive breast carcinoma cell line growth inhibition [IpAb]
Conditions: for IC50: curve of first compound; for viability, T/C: stronger effect = lower value
Source text: Combinatorial screen of targeted agents with ipatasertib and abemaciclib in multi-cell type tumor spheroids
A high-throughput screen of multi-cell type tumor spheroids was designed to identify active combinations of targeted small molecules and ipatasertib or abemaciclib. Complex spheroids include a stromal component modeled by human endothelial cells (HUVEC) and fibroblasts modeled by human mesenchymal stem cells (MSCs). The concentration ranges selected for each drug and investigational agent were based upon clinically achievable concentrations if the clinical Cmax of the agent was known.
Compounds. The drugs and investigational agents: ipatasertib (NSC767898), abemaciclib(NSC768073), selumetinib (NSC741078), trametinib (758246), adavosertib (NSC754352), everolimus (NSC733504), sapanisertib (NSC764658), vemurafenib (NSC761431), venetoclax (NSC766270), copanlisib (NSC809693), apelisib (NSC765974), palbociblib (NSC758247), vemurafenib (NSC761431), dabrafenib (NSC764134), ravoxertinib (NSC781343), BMS-387032 (NSC767048), sotorasib (NSC818433), talazoparib (NSC767125) and afursertib (NSC778305), were obtained from the National Cancer Institute (NCI) Developmental Therapeutics Program Chemical Repository. The FDA-approved anticancer drug set is available from the NCI Developmental Therapeutics Program. […] The stock solutions were prepared in dimethyl sulfoxide (DMSO, Sigma-Aldrich, St. Louis, MO, cat. D2650) at 800-fold the tested concentration and stored at -70 degrees C prior to their use. All drugs and investigational agents were tested over a range starting from a high concentration at or near the clinical Cmax and decreasing in half-log increments. If the clinical Cmax for an agent had not been determined, the highest concentration tested was 10 microM.
NCI60 Cell Culture. NCI60 cell lines were obtained from the NCI Developmental Therapeutics Program Tumor Repository. For each lot of cells, the Repository performed Applied Biosystems AmpFLSTR Identifiler testing with PCR amplification to confirm consistency with the published Identifier STR profile for each cell line. Cells were kept in continuous culture for no more than 20 passages. The optimal seeding densities for each of the cell lines at each time point assessed were determined prior to performing the concentration response studies. Briefly, the NCI60 human tumor lines were grown as monolayers in RPMI 1640 medium supplemented with 10% FBS and 2 mmol/L L-glutamine.
An additional 9 lines were from the NCI60 cell line panel including MDA-MB-231 breast carcinoma, MDA-MB-468 breast carcinoma, MCF7 breast carcinoma, Hs578T breast carcinoma, MALME-3M melanoma, SK-MEL-2 melanoma, SK-OV-3 ovarian carcinoma, DU-145 prostate carcinoma, PC-3 prostate carcinoma, all cell lines along with major genetic alterations are listed on Table 2. Pooled donor human umbilical vein endothelial cells (HUVEC, Lonza, cat. CC-2519) and human mesenchymal stem cells (hMSC, Lonza, cat. PT-2501) were purchased from Lonza (Walkersville, MD).
PDMR cell lines were grown in complete medium (DC medium): Dulbecco's modified Eagle's medium (DMEM)/F12 supplemented with 5% fetal bovine serum (FBS), 2 mM L-glutamine, 100 U/mL penicillin and 100 µg/ml streptomycin, 0.4 µg/ml hydrocortisone, 10 ng/ml epidermal growth factor (EGF) recombinant human protein, 24 µg/mL adenine, and 0.1 mg/mL primocin. During culture from frozen stock vials, PDMR cells were cultured in the same medium containing 10 µM Y-27632 (see Table 3). The PDCs were cultured in complete DMEM/F12 media without 10 microM Y-27632 dihydrochloride for at least two passages prior to the screen. The pooled donor HUVEC and hMSC were cultured in endothelial cell growth medium 2 (PromoCell, Heidelberg, Germany, cat. C-22011) and mesenchymal stem cell growth medium 2 (PromoCell, cat. C-28009), respectively. For all experiments, HUVEC and hMSC were used at passages </=5.
[…]
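Note: spheroids exposed to the agents for seven days before readout.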

In the case of CC(=O)c1c(C)c2cnc(Nc3ccc(N4CCNCC4)cn3)nc2n(C2CCCC2)c1=O + CC(C)NCC(C(=O)N1CCN(c2ncnc3c2C(C)CC3O)CC1)c1ccc(Cl)cc1, the IC50 (second compound 0.1 µM) is reported as over 300 nM, the IC50 (second compound 0.316 µM) is reported as over 300 nM and the IC50 (second compound 1 µM) is reported as under 0.949 nM. It also gave an IC50 (second compound 3.16 µM) of under 0.949 nM, an IC50 (second compound 10 µM) of under 0.949 nM and a viability, T/C (second compound 0.1 µM, first compound 0.000949 µM) of 98.8%. The viability, T/C (second compound 0.1 µM, first compound 0.003 µM) was 112%, the viability, T/C (second compound 0.1 µM, first compound 0.00949 µM) was 94% and the viability, T/C (second compound 0.1 µM, first compound 0.03 µM) was 106%. The viability, T/C (second compound 0.1 µM, first compound 0.0949 µM) was 103%, the viability, T/C (second compound 0.1 µM, first compound 0.3 µM) was 93.5% and the viability, T/C (second compound 0.316 µM, first compound 0.000949 µM) was 83.3%. The viability, T/C (second compound 0.316 µM, first compound 0.003 µM) was 84.8%, the viability, T/C (second compound 0.316 µM, first compound 0.00949 µM) was 77.4% and the viability, T/C (second compound 0.316 µM, first compound 0.03 µM) was 76.1%. The viability, T/C (second compound 0.316 µM, first compound 0.0949 µM) was 64.6%, the viability, T/C (second compound 0.316 µM, first compound 0.3 µM) was 59.6% and the viability, T/C (second compound 1 µM, first compound 0.000949 µM) was 30.8%. The viability, T/C (second compound 1 µM, first compound 0.003 µM) was 26.1%, the viability, T/C (second compound 1 µM, first compound 0.00949 µM) was 27.8% and the viability, T/C (second compound 1 µM, first compound 0.03 µM) was 25.9%. For the same compound, the viability, T/C (second compound 1 µM, first compound 0.0949 µM) was 26.1%, the viability, T/C (second compound 1 µM, first compound 0.3 µM) was 23.9% and the viability, T/C (second compound 3.16 µM, first compound 0.000949 µM) was 12.4%. For the same compound, the viability, T/C (second compound 3.16 µM, first compound 0.003 µM) was 11.8%, the viability, T/C (second compound 3.16 µM, first compound 0.00949 µM) was 12.2% and the viability, T/C (second compound 3.16 µM, first compound 0.03 µM) was 10.2%. It also gave a viability, T/C (second compound 3.16 µM, first compound 0.0949 µM) of 9.89%, a viability, T/C (second compound 3.16 µM, first compound 0.3 µM) of 9.65% and a viability, T/C (second compound 10 µM, first compound 0.000949 µM) of 6.66%. It also gave a viability, T/C (second compound 10 µM, first compound 0.003 µM) of 6.56%, a viability, T/C (second compound 10 µM, first compound 0.00949 µM) of 6.69% and a viability, T/C (second compound 10 µM, first compound 0.03 µM) of 5.87%. It also gave a viability, T/C (second compound 10 µM, first compound 0.0949 µM) of 5.79% and a viability, T/C (second compound 10 µM, first compound 0.3 µM) of 5.34%.
